The target of data set [1] is T1, wild-type GSTP1 (Homo sapiens, UniProt P09211, I105V).
T1 construct: hexahistidine tag followed by a thrombin site (N); made in house; host or cells: Escherichia coli BL21 (DE3)
Put plainly: GSTP1 kinetic assay (GSH/CDNB conjugation), wild type. Particulars: Supplementary Table 1, mean ± SEM (n=3), 30 min pre-incubation; read-out: IC50 (μM), GSTP1 WT. It counts as biochemical. On the procedure: (§1) The enzymatic activity of GSTP1 and its mutations was measured through the increased absorbance at 340 nm, which derived from the conjugation of reduced glutathione (GSH) and 1-chloro-2,4-dinitrobenzene (CDNB). The conjugation was initiated by adding CDNB to the mixture of GSH and GSTP1 or its mutants, and OD was immediately and continually measured for 20 min at 25 °C. The final assay mixture included 1 mM CDNB, 1 mM GSH in the buffer of 100 mM potassium phosphate pH 6.5, 1 mM EDTA. The inhibitory potency of MNPC versus GSTP1 or mutants was determined by calculating the residual activity after incubated with MNPC for 30 min at room temperature. Parallel control was run to monitor spontaneous conjugation of GSH and CDNB in the absence of the enzyme, and absorbance change of the control was used for the correction of an enzymatic reaction. The inhibition rate in triplicate was calculated by GraphPad Prism software (GraphPad, San Diego, CA) to give IC50 using nonlinear regression analysis.

In data set [2] the target is T2, GSTP1 V104A (Homo sapiens, UniProt P09211, I105A).
T2 construct: hexahistidine tag followed by a thrombin site (N); made in house; host or cells: Escherichia coli BL21 (DE3)
Put plainly: GSTP1 kinetic assay, V104A mutant. It counts as biochemical. The following applies: mean ± SEM (n=3). On the procedure: as §1

Data set [3] concerns the target T3, GSTP1 F8A (Homo sapiens, UniProt P09211, F9A/I105V).
T3 construct: hexahistidine tag followed by a thrombin site (N); made in house; host or cells: Escherichia coli BL21 (DE3)
Put plainly: GSTP1 kinetic assay, F8A mutant. It counts as biochemical. Particulars: mean ± SEM (n=3). On the procedure: as §1

Data set [4] concerns normal cells (HC11, ACS-5003, MEFs). Put plainly: Cell proliferation and LDH assays in normal cells. It counts as cell-based. Particulars: up to 5 μM. On the procedure: (§2) In vitro assessment was implemented for cell proliferation using the 3-(4, 5- dimethylthiazol- 2-yl)-2,5-diphenyltetrazolium bromide (MTT) assay. After different treatments with specific time periods, 10 μL of MTT (5 mg/mL in PBS, Sigma, USA) was added to each well and the plates were incubated for 3 h at 37 °C. The resulting formazan product was dissolved with DMSO. The absorbance at a wavelength of 490 nm was recorded using a microplate reader (BioTek Instruments Inc., USA).
(§3) After collecting the supernatants, the […] were measured using LDH assay kits (Promega Corporation, USA). Protein carbonyl level and GSH/GSSG ratio were measured from cell homogenates using Protein Carbonyl Assay Kit (#ab126287, Abcam, Cambridge MA, USA) and GSH/GSSG-Glo™ (Promega Corporation, USA), respectively.

The target in data set [5] is T4, GSTP1 F8A/Y108A (Homo sapiens, UniProt P09211, F9A/I105V/Y109A).
T4 construct: hexahistidine tag followed by a thrombin site (N); made in house; host or cells: Escherichia coli BL21 (DE3)
In words: Microscale thermophoresis (MST), F8A/Y108A. Particulars: n.b. = no clear binding detected. On the procedure:
(§4) Since Tris buffer is incompatible with MST labeling, GSTP1 and its mutants were performed an initial buffer exchange to 20 mM HEPES pH 7.6, 200 mM NaCl before labeling. Then, the proteins were fluorescently labeled using Monolith Protein Labeling Kit RED-NHS 2nd generation dye (NanoTemper Technology, Munich, Germany) according to the protocol. MNPC was prepared with a series of concentrations (varying from 2 mM to 11 nM) at a dilution ratio of 1: 2. Six microliters of the fluorescence-labeled GSTP1 or mutations was mixed with 6 μl of variable concentration of MNPC and incubated for 10 min at room temperature. The mixtures were loaded into standard glass capillaries and analyzed on Monolith NT.115 at 25 °C, with 40% LED power and 100% Laser power in triplicate. Data were analyzed by NTAnalysis software to calculate the Kd values.
For orientation: Microscale thermophoresis detects binding through changes in fluorescence in a small temperature gradient.

The test system of data set [6] is U87MG/EGFRvIII cells. Put plainly: Cell proliferation (MTT) assay, U87MG/EGFRvIII. It counts as cell-based, human. On the procedure:
The human glioblastoma cell line U87MG was stably transfected with vector control, pLHCX-EGFRvIII, pGFP-NQO1 and pRS-GSTP1, which were supplemented with various antibiotics. For EGFRvIII, 150 μg/mL of hygromycin was used; for pGFP-NQO1 and pRS-GSTP1, 0.7 μg/mL of puromycin was employed. The cells were supplemented with 10% fetal bovine serum (Hyclone, USA), penicillin (100 U/ml) and streptomycin (100 U/ml) (ABAM Life Technologies, USA) in a humidified incubator with 5% CO2 at 37 °C.
as §2

For data set [7], the target named is T3, GSTP1 F8A. In words: Microscale thermophoresis (MST), F8A. The following applies: n.b. = no clear binding detected. On the procedure: as §4
Data set [8] addresses T5, GSTP1 R100A (Homo sapiens, UniProt P09211, I105V/R101A).
T5 construct: hexahistidine tag followed by a thrombin site (N); made in house; host or cells: Escherichia coli BL21 (DE3)
In words: GSTP1 kinetic assay, R100A mutant. It counts as biochemical. Particulars: mean ± SEM (n=3). On the procedure:
as §1

Data set [9] relates to U87MG/EGFRvIII cells. Put plainly: Transwell migration assay. It counts as cell-based, human. Particulars: 0-1 μM. On the procedure:
A total of 1 × 10^4 cells were seeded onto the upper part of a transwell chamber (BD Bioscience, USA) containing a membrane filter for migration assays. Serum-free medium was added to the upper well, and medium containing 10% FBS was added to the lower well. After different treatments and incubation at 37 °C with 5% CO2, the filters were stained with crystal violet. Five random fields were counted per chamber by using a microscope.

Data set [10] deals with T6, NQO1 (Homo sapiens, UniProt P15559).
T6 construct: hexahistidine tag followed by a thrombin site (N); made in house; host or cells: Escherichia coli BL21 (DE3)
Put plainly: NQO1 activity assay (DCPIP reduction). It counts as biochemical. Particulars: purified recombinant protein, Fig. 3b; read-out: IC50, inhibition of NQO1 activity. On the procedure: NQO1 activity was measured essentially as described previously. Assays were performed in 25 mM Tris–HCl, pH 7.4, 0.7 mg/mL BSA, 250 mM sucrose, 0.2 mM NADPH and 40 μM dichlorophenolindophenol (DCPIP) in the presence of NQO1 protein with 10, 5, 2.5, 1.25, 0.625, 0.3125, 0.15625 and 0 μM of MNPC. It is analyzed for the reduction of DCPIP measured at 600 nm.

The test system of data set [11] is U87MG/EGFRvIII cells. In words: LDH, protein carbonyl and GSH/GSSG measurements. In kind it is cell-based, human. The following applies: dose-dependent, 0-5 μM. On the procedure:
as §3

The target in data set [12] is T7, GSTP1 Y108A (Homo sapiens, UniProt P09211, I105V/Y109A).
T7 construct: hexahistidine tag followed by a thrombin site (N); made in house; host or cells: Escherichia coli BL21 (DE3)
Put plainly: GSTP1 kinetic assay, Y108A mutant. The following applies: mean ± SEM (n=3). It counts as biochemical. On the procedure:
as §1

Data set [13] deals with T8, GSTP1 WT (Homo sapiens, UniProt P09211, I105V).
T8 construct: hexahistidine tag followed by a thrombin site (N); made in house; host or cells: Escherichia coli BL21 (DE3)
Put plainly: Microscale thermophoresis (MST), GSTP1 wild type. It counts as binding. Particulars: mean ± SEM, three experiments. On the procedure:
as §4

T3 sequence (P09211 whole entry F9A/I105V): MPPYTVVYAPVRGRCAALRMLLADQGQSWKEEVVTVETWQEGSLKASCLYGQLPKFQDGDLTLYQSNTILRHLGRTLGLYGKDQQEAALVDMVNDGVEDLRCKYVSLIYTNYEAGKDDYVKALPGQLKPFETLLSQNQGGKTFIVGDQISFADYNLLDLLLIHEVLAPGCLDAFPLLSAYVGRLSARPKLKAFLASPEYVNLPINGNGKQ
T4 sequence (P09211 whole entry F9A/I105V/Y109A): as the sequence (P09211 whole entry F9A/I105V) above, with Y109A counted along it
T6 sequence (P15559 whole entry): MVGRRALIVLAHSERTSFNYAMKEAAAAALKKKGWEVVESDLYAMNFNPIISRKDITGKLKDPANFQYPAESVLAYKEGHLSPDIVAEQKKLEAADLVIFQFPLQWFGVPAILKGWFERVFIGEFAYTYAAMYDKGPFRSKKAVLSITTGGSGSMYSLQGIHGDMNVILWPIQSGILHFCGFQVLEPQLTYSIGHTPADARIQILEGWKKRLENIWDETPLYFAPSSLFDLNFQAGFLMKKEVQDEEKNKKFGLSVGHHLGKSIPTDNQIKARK
T5 sequence (P09211 whole entry R101A/I105V): as the sequence (P09211 whole entry F9A/I105V) above, with A9F, R101A counted along it
T7 sequence (P09211 whole entry I105V/Y109A): as the sequence (P09211 whole entry F9A/I105V) above, with A9F, Y109A counted along it
T2 sequence (P09211 2-210 I105A): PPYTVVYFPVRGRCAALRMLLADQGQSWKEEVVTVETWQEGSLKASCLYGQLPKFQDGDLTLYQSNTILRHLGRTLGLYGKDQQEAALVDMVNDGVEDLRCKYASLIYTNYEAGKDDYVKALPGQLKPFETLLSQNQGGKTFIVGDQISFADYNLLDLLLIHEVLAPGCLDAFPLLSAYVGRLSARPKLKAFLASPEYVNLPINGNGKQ
T1 sequence (P09211 whole entry I105V): as the sequence (P09211 whole entry F9A/I105V) above, with A9F counted along it
T8 sequence (P09211 whole entry I105V): as the sequence (P09211 whole entry F9A/I105V) above, with A9F counted along it

In general, IC50 refers to the concentration that inhibits the measured activity by half. One may read the Kd as the free concentration of one partner at which half of the binding sites on the other are occupied at equilibrium, for simple one-to-one binding. Regarding `Cc1onc(-c2ccccc2)c1C(=O)Nc1ncc([N+](=O)[O-])s1` [MNPC, 5-methyl-N-(5-nitro-thiazol-2-yl)-3-phenylisoxazole-4-carboxamide], the concentration for half-maximal inhibition (IC50) stood at 0.4 ± 0.39 µM in [1]; 0.65 ± 0.19 µM in data set [2]; 2.42 ± 0.36 µM in [3]; 1.32 µM in data set [6] (Homo sapiens, U-87 MG, inhibition of cell proliferation/viability, MNPC treated 72 h); 2.37 ± 0.38 µM in [8]; 926 nM in data set [10]. In addition, in [12], the concentration for half-maximal inhibition (IC50) came out at 25.7 ± 1.41 µM. In addition, in data set [4], the “Effect on cell proliferation of normal cells” value was “barely affected”. Moreover, the “Kd (μM), F8A/Y108A” value in [5] was “n.b. and no detectable binding”. The Growth of cultures result in [6] (0, 0.5, 1, 2 and 5 μM for 5 days, MTT) is “dose-dependently inhibited the growth”. Moreover, the “Cell number in NQO1/GSTP1-depleted cells” value in [6] (U87MG/EGFRvIII with si-NQO1, si-GSTP1 or both, MNPC 1 μM, 5 days) is “no effect on cell number”. Also, in [7], the “Kd (μM), F8A” value was “n.b. and no detectable binding”. Moreover, the Effect on migration entry in data set [9] is given as “no effect”. For the same molecule, the Carbonyl expression result in [11] was “induced”. In addition, the GSH/GSSG ratio entry in data set [11] is “downregulating”. The LDH release entry in [11] was “induced”. In data set [13], this molecule gave a Kd of 17.6 ± 0.8 µM.

Source of the values: publication PMC7579906, “Discovery of a dual inhibitor of NQO1 and GSTP1 for treating glioblastoma” (Journal of Hematology & Oncology, 2020).
